Where “and” joins values, the source holds several entries; their conditions need not be identical. Identical values can stand only once. Like-named read-outs stand apart in the source and are kept apart here.
Columns and labels:
[1] = system: cervical cancer cells (Hela); assay: MTS in vitro cytotoxicity assay, Hela; assay type: cell-based; conditions: 96 h exposure, mean ± SD n = 6
From the text: (§1) The absorbance is directly proportional to cell viability.

[2] = system: kidney cancer cells (HEK293); assay: MTS in vitro cytotoxicity assay, HEK293; assay type: cell-based; conditions: EC50 against BHK21 divided by EC50 against HEK293
From the text: as §1

[3] = MTS in vitro cytotoxicity assay, HEK293; assay type: cell-based; conditions: MTS assay, 96 h exposure, mean ± SD n = 6
From the text: as §1

[4] = system: lung cancer cells (A549); assay: MTS in vitro cytotoxicity assay, A549; assay type: cell-based; conditions: mean ± SD n = 6
From the text: as §1

[5] = system: Lymphoma cells (MT4); assay: MTS in vitro cytotoxicity assay, MT4; assay type: cell-based; conditions: 96 h exposure, mean ± SD n = 6
From the text: as §1

[6] = system: normal kidney cells (BHK21); assay: MTS in vitro cytotoxicity assay, BHK21; assay type: cell-based; conditions: mean ± SD n = 6
From the text: as §1

[7] = not given; remark: listed apart in the source
[8] = system: cancer cells (HeLa, HEK293, A549, MT4); conditions: summary over the selected cancer cell lines, MTS assay; for EC50: read-out: EC50 against the cancer cells
Method: (§2) An MTS (3-(4,5-dimethylthiazol-2-yl)-5-(3-carboxymethoxy-phenyl)-2-(4-sulfophenyl)-2H-tetrazolium) in vitro cytotoxicity assay was conducted to determine change in cell viability using a colour change. The MTS compound (yellow) is metabolised by viable cells to form a dark purple coloured compound, visible through UV-Vis spectroscopy at 490 nm. The absorbance is directly proportional to cell viability. Samples were tested across three plates in duplicate (n = 6), and the average value was reported.
(§3) HeLa (cervical cancer cells), Hek293 (kidney cancer cells), BHK21 (normal kidney cells), MT4 (lymphoma cells) and A549 (lung cancer cells) were grown using standard tissue culture techniques. The cells (1 × 10^5 cells/mL) were incubated in 96-well plates at 37 °C overnight, with the subsequent addition of the supplied compounds, at concentrations (100 µg/mL, 50.0 µg/mL, 25.0 µg/mL, 12.5 µg/mL, 6.25 µg/mL, 3.125 µg/mL and 0 µg/mL). The cells were left to incubate for four days, after which MTS (5 µL) was added to the cells. The absorbance values were measured at 490 nm after 1 h, 2 h and 4 h incubation periods, averaged, and the viability curves were drawn up.

[9] = system: all the tested cell lines (Hela, HEK293, BHK21, MT4, A549); conditions: summary over all tested cell lines, MTS assay
Method: as §2, §3

[10] = qualitative, aqueous model system / PBS
[11] = Homo sapiens, A549, 96 h exposure
[12] = Mesocricetus auratus, BHK-21, 96 h exposure
[13] = base: NaHCO3 1.0 equiv., PBS pH 7.4, 310 K, 24 h
[14] = base: None, 2.0 equiv. halide abstractor AgBF4 added, PBS pH 7.4, 310 K, 24 h
[15] = base: None, 1 mol% catalyst, 2.0 equiv. sodium formate, PBS pH 7.4, 310 K, 24 h
[16] = percentage of lactate formed, base: NaHCO3 1.0 equiv., PBS pH 7.4, 310 K, 24 h
[17] = percentage of lactate formed, base: None, 2.0 equiv. AgBF4 added, PBS pH 7.4, 310 K, 24 h
[18] = percentage of lactate formed, base: None, PBS pH 7.4, 310 K, 24 h

SMILES	EC50 [1] [µM]	EC50 [3] [µM]	EC50 ([4]; 96 h exposure) [µM]	EC50 [5] [µM]	EC50 ([6]; 96 h exposure) [µM]	EC50 BHK21 ([6]; 96 h exposure)	further results
c1ccc(Cn2cc(-c3ccccn3)nn2)nc1 [Complex L2, 2-((4-(Pyridin-2-yl)-1H-1,2,3-triazol-1-yl)methyl)pyridine]	–	–	–	–	–	–	EC50 ([1]; Homo sapiens, HeLa): 1070 ± 134 µM; SI (selectivity index) [2]: ≤1; EC50 ([3]; Homo sapiens, HEK293): > 1300 µM; EC50 [4, 11]: > 1300 µM; EC50 MT4 [5]: N.R.; EC50 [6, 12]: > 1300 µM
Cc1c(C)c(C)[c-](C)c1C.F[B-](F)(F)F.[Cl-].[Ir+3].c1ccc(Cn2cc(-c3ccccn3)nn2)cc1 [Complex C5, [Chlorido(2-(1-benzyl-(3-κN)-1,2,3-triazol-4-yl)-(2′-κN)-pyridine)(η^6-pentamethylcypentadiene)iridium(III)] tetrafluoroborate]	> 500	> 500	> 500	67 ± 6	55 ± 1	low cytotoxicities	Conversion (%) [13]: 0.1 ± 0.02%; TON [13]: ≤0.1; Conversion (%) [14]: 20 ± 3%; TON [14]: 20; Conversion (%) [15]: 14 ± 2%; TON [15]: 14; Selectivity (%) [16]: 100%; Selectivity (%) [17]: >99%; Selectivity (%) [18]: 100%; Conversion of pyruvate to lactate (summary, base condition not specified): < 14%; Time with no detectable changes in the 1H NMR spectra (stability) ([7]; pH 7.4): over 72 h
Cc1c(C)c(C)[c-](C)c1C.F[B-](F)(F)F.[Cl-].[Rh+3].c1ccc(Cn2cc(-c3ccccn3)nn2)cc1 [Complex C4, [Chlorido(2-(1-benzyl-(3-κN)-1,2,3-triazol-4-yl)-(2′-κN)-pyridine)(η^6-pentamethylcypentadiene)rhodium(III)] tetrafluoroborate]	≥ 300	> 500	> 500	60 ± 8	> 500	–	–
Cc1ccc(C(C)C)cc1.F[B-](F)(F)F.[Cl-].[Os+2].c1ccc(Cn2cc(-c3ccccn3)nn2)cc1 [Complex C3, [Chlorido(2-(1-benzyl-(3-κN)-1,2,3-triazol-4-yl)-(2′-κN)-pyridine)(η^6-p-cymene)osmium(II)] tetrafluoroborate]	> 500	> 500	> 500	133 ± 12	> 500	–	Conversion (%) [13]: 0.1 ± 0.03%; Conversion (%) [14]: 3 ± 1%; Conversion (%) [15]: 1 ± 0.3%; Selectivity (%) [16]: 100%; Selectivity (%) [17]: >99%; Selectivity (%) [18]: 100%
Cc1ccc(C(C)C)cc1.F[B-](F)(F)F.[Cl-].[Ru+2].c1ccc(Cn2cc(-c3ccccn3)nn2)nc1 [Complex C6, [Chlorido(2-((4-(pyridine-2-yl)-(3-κN)-1,2,3-trizol-1-yl)methyl)-(2′-κN)-pyridine)(η^6-p-cymene)ruthenium(II)] tetrafluoroborate]	388 ± 70.9	> 500	–	158 ± 44.2	–	N.R.	EC50 A549 ([4]; 96 h exposure): N.R.; EC50 against the cancer cells [8]: completely inactive against most cancer cells
Cc1ccc(C(C)C)cc1.F[B-](F)(F)F.[Cl-].[Os+2].c1ccc(Cn2cc(-c3ccccn3)nn2)nc1 [Complex C8, [Chlorido(2-((4-(pyridine-2-yl)-(3-κN)-1,2,3-trizol-1-yl)methyl)-(2′-κN)-pyridine)(η^6-p-cymene)osmium(II)] tetrafluoroborate]	–	> 500	> 500	–	> 500	–	EC50 Hela [1]: N.R.; EC50 MT4 [5]: N.R.; EC50 / activity against all the tested cell lines [9]: not active
Cc1c(C)c(C)[c-](C)c1C.F[B-](F)(F)F.[Cl-].[Ir+3].c1ccc(Cn2cc(-c3ccccn3)nn2)nc1 [Complex C11, [Chlorido(2-((4-(pyridine-2-yl)-(3-κN)-1,2,3-trizol-1-yl)methyl)-(2′-κN)-pyridine)(η^6-pentamethylcypentadiene)iridium(III)] tetrafluoroborate]	2.5 ± 1	> 500	> 500	111 ± 7	–	non-toxic and completely inactive and N.R.	Conversion (%) [15]: 70 ± 5%; EC50 [8]: < 5 µM; Time with no detectable changes in the 1H NMR spectra (stability) ([7]; pH 7.4): over 72 h
CC(=O)OC[C@H]1O[C@@H]([S-])[C@H](OC(C)=O)[C@@H](OC(C)=O)[C@@H]1OC(C)=O.CCP(CC)CC.[Au+] [Auranofin, reference compound]	< 2	< 0.1	12 ± 2	< 2	< 0.1	–	–
c1ccc(Cn2cc(-c3ccccn3)nn2)cc1 [Complex L1, 2-(1-Benzyl-1H-1,2,3-triazol-4-yl)pyridine]	–	–	–	> 1300	–	–	EC50 ([1]; Homo sapiens, HeLa): 168 ± 31 µM; SI (selectivity index) [2]: ≤1; EC50 ([3]; Homo sapiens, HEK293): > 1300 µM; EC50 [4, 11]: > 1300 µM; EC50 [6, 12]: > 1300 µM
Cc1ccc(C(C)C)cc1.[Cl-].[Ru+2].c1ccc(Cn2cc(-c3ccccn3)nn2)nc1.c1ccc([B-](c2ccccc2)(c2ccccc2)c2ccccc2)cc1 [Complex C7, [Chlorido(2-((4-(pyridine-2-yl)-(3-κN)-1,2,3-trizol-1-yl)methyl)-(2′-κN)-pyridine)(η^6-p-cymene)ruthenium(II)] tetraphenylborate]	26 ± 0.8	17 ± 4.8	53 ± 6	20 ± 4.8	67 ± 7.3	–	Solubility in aqueous model system [10]: poorly soluble
Cc1ccc(C(C)C)cc1.[Cl-].[Ru+2].c1ccc(Cn2cc(-c3ccccn3)nn2)cc1.c1ccc([B-](c2ccccc2)(c2ccccc2)c2ccccc2)cc1 [Complex C2, [Chlorido(2-(1-benzyl-(3-κN)-1,2,3-triazol-4-yl)-(2′-κN)-pyridine)(η^6-p-cymene)ruthenium(II)] tetraphenylborate]	15 ± 1.7	11 ± 1.5	14 ± 4	9 ± 1	151 ± 0.6	low cytotoxicities	Solubility in aqueous model system [10]: poorly soluble; EC50 [8]: 9 to 16 µM and ≤ 16 µM
Cc1ccc(C(C)C)cc1.F[B-](F)(F)F.[Cl-].[Ru+2].c1ccc(Cn2cc(-c3ccccn3)nn2)cc1 [Complex C1, [Chlorido(2-(1-benzyl-(3-κN)-1,2,3-triazol-4-yl)-(2′-κN)-pyridine)(η^6-p-cymene)ruthenium(II)] tetrafluoroborate]	> 500	> 500	> 500	37 ± 5	113 ± 17	low cytotoxicities	Selectivity (%) (pH 7.4): 100% and >99%; Time with no detectable changes in the 1H NMR spectra (stability) ([7]; 10% DMSO-d6 in phosphate-buffered D2O (pH 7.4), 37 °C): over 72 h
Cc1ccc(C(C)C)cc1.F[B-](F)(F)F.[Cl-].[Os+2].c1ccc(Cn2cc(-c3ccccn3)nn2)nc1 [Complex C9, [Chlorido(2-((4-(pyridine-2-yl)-(3-κN)-1,2,3-trizol-1-yl)methyl)-(2′-κN)-pyridine)(η^6-p-cymene)osmium(II)] tetrafluoroborate]	–	> 400	> 500	–	–	N.R.	EC50 Hela [1]: N.R.; EC50 MT4 [5]: N.R.; EC50 / activity against all the tested cell lines [9]: not active
Cc1c(C)c(C)[c-](C)c1C.F[B-](F)(F)F.[Cl-].[Rh+3].c1ccc(Cn2cc(-c3ccccn3)nn2)nc1 [Complex C10, [Chlorido(2-((4-(pyridine-2-yl)-(3-κN)-1,2,3-trizol-1-yl)methyl)-(2′-κN)-pyridine)(η^6-pentamethylcypentadiene)rhodium(III)] tetrafluoroborate]	–	> 500	–	> 500	–	N.R.	EC50 Hela [1]: N.R.; EC50 A549 ([4]; 96 h exposure): N.R.
